{"source": "paper PMC5218480", "about": "(PLoS ONE, 2017)", "tested_on": "MV-4-11 cells", "test": "Gene expression microarray analysis (Affymetrix PrimeView) and GSEA", "assay_type": "cell-based, human", "parameters": "RFU PODN (11730768_x_at) / Fold change /veh PODN (11730768_x_at) / RFU LINC00158 (11744669_a_at) / Fold change /veh LINC00158 (11744669_a_at) / RFU DUSP10 (11751237_a_at) / Fold change /veh DUSP10 (11751237_a_at) / RFU ID3 (11757404_x_at) / Fold change /veh ID3 (11757404_x_at) / RFU PLEKHG5 (11737974_s_at) / Fold change /veh PLEKHG5 (11737974_s_at) / RFU LRRC4B (11730491_at) / Fold change /veh LRRC4B (11730491_at) / RFU GIMAP4 (11747438_a_at) / Fold change /veh GIMAP4 (11747438_a_at) / RFU KRT8 (11758183_x_at) / Fold change /veh KRT8 (11758183_x_at) / RFU CNN1 (11734310_a_at) / Fold change /veh CNN1 (11734310_a_at) / RFU VPS37D (11726825_at) / Fold change /veh VPS37D (11726825_at) / RFU C10orf10 (11716522_x_at) / Fold change /veh C10orf10 (11716522_x_at) / RFU KIR2DL2 /// KIR2DL4 /// KIR2DL5A /// KIR2DL5B /// KIR2DS1 /// KIR2DS2 /// KIR2DS3 /// KIR2DS4 /// KIR3DL3 /// KIR3DL3 /// KIR3DS1 (11738374_at) / Fold change /veh KIR2DL2 /// KIR2DL4 /// KIR2DL5A /// KIR2DL5B /// KIR2DS1 /// KIR2DS2 /// KIR2DS3 /// KIR2DS4 /// KIR3DL3 /// KIR3DL3 /// KIR3DS1 (11738374_at) / RFU C1QL1 (11718748_at) / Fold change /veh C1QL1 (11718748_at) / RFU TMPRSS4 (11747572_a_at) / Fold change /veh TMPRSS4 (11747572_a_at) / RFU HAMP (11756126_x_at) / Fold change /veh HAMP (11756126_x_at) / RFU RNFT2 (11725882_a_at) / Fold change /veh RNFT2 (11725882_a_at) / RFU NR4A2 (11747474_a_at) / Fold change /veh NR4A2 (11747474_a_at) / RFU ABCC12 (11746883_a_at) / Fold change /veh ABCC12 (11746883_a_at) / RFU TMEM136 (11760407_x_at) / Fold change /veh TMEM136 (11760407_x_at) / RFU CLDN22 /// WWC2 (11732394_at) / Fold change /veh CLDN22 /// WWC2 (11732394_at) / RFU HLA-DPB1 (11760878_x_at) / Fold change /veh HLA-DPB1 (11760878_x_at) / RFU SPINT1 (11716480_a_at) / Fold change /veh SPINT1 (11716480_a_at) / RFU GAP43 (11754022_s_at) / Fold change /veh GAP43 (11754022_s_at) / RFU A4GNT (11735810_at) / Fold change /veh A4GNT (11735810_at) / RFU PRB3 (11715151_x_at) / Fold change /veh PRB3 (11715151_x_at) / RFU TUBB4B (11761932_at) / Fold change /veh TUBB4B (11761932_at) / RFU CAPN14 (11732068_a_at) / Fold change /veh CAPN14 (11732068_a_at) / RFU TMCC2 (11721928_a_at) / Fold change /veh TMCC2 (11721928_a_at) / RFU IRGQ (11745062_a_at) / Fold change /veh IRGQ (11745062_a_at) / RFU FAM174B (11720279_a_at) / Fold change /veh FAM174B (11720279_a_at) / RFU TMPRSS4 (11748680_a_at) / Fold change /veh TMPRSS4 (11748680_a_at) / RFU FAM212B (11763350_a_at) / Fold change /veh FAM212B (11763350_a_at) / RFU PLEKHG5 (11743358_a_at) / Fold change /veh PLEKHG5 (11743358_a_at) / RFU ZSCAN30 (11745921_a_at) / Fold change /veh ZSCAN30 (11745921_a_at) / RFU CMKLR1 (11741424_a_at) / Fold change /veh CMKLR1 (11741424_a_at) / RFU LOC101060620 /// MAPK8IP1 (11723275_at) / Fold change /veh LOC101060620 /// MAPK8IP1 (11723275_at) / RFU SPTSSB (11747773_x_at) / Fold change /veh SPTSSB (11747773_x_at) / RFU PRSS12 (11739890_at) / Fold change /veh PRSS12 (11739890_at) / RFU BIN1 (11741810_x_at) / Fold change /veh BIN1 (11741810_x_at) / RFU WNT11 (11732464_a_at) / Fold change /veh WNT11 (11732464_a_at) / RFU C10orf10 (11716521_a_at) / Fold change /veh C10orf10 (11716521_a_at) / RFU C5orf56 (11738089_at) / Fold change /veh C5orf56 (11738089_at) / RFU CYB561 (11721691_x_at) / Fold change /veh CYB561 (11721691_x_at) / RFU ANKRD19P (11752326_a_at) / Fold change /veh ANKRD19P (11752326_a_at) / RFU OR2T12 /// OR2T33 /// OR2T8 (11738714_s_at) / Fold change /veh OR2T12 /// OR2T33 /// OR2T8 (11738714_s_at) / RFU VCAN (11748164_a_at) / Fold change /veh VCAN (11748164_a_at) / RFU JSRP1 (11732532_at) / Fold change /veh JSRP1 (11732532_at) / RFU KRTAP10-11 (11738290_x_at) / Fold change /veh KRTAP10-11 (11738290_x_at) / RFU MYO3A (11730013_a_at) / Fold change /veh MYO3A (11730013_a_at) / RFU EBF3 (11725865_a_at) / Fold change /veh EBF3 (11725865_a_at) / RFU CAMK2N1 (11719241_x_at) / Fold change /veh CAMK2N1 (11719241_x_at) / RFU C5orf56 (11738088_a_at) / Fold change /veh C5orf56 (11738088_a_at) / RFU OLFML3 (11715873_a_at) / Fold change /veh OLFML3 (11715873_a_at) / RFU LOC100653217 /// NTM (11731650_a_at) / Fold change /veh LOC100653217 /// NTM (11731650_a_at) / RFU MAPK11 (11762145_a_at) / Fold change /veh MAPK11 (11762145_a_at) / RFU FIZ1 (11724087_x_at) / Fold change /veh FIZ1 (11724087_x_at) / RFU OASL (11726364_x_at) / Fold change /veh OASL (11726364_x_at) / RFU SOX15 (11748057_x_at) / Fold change /veh SOX15 (11748057_x_at) / RFU CD79A (11719716_a_at) / Fold change /veh CD79A (11719716_a_at) / RFU HIST1H1D (11736915_at) / Fold change /veh HIST1H1D (11736915_at) / RFU CASKIN2 (11723855_a_at) / Fold change /veh CASKIN2 (11723855_a_at) / RFU LOC730098 (11760151_x_at) / Fold change /veh LOC730098 (11760151_x_at) / RFU OR4N2 (11742367_at) / Fold change /veh OR4N2 (11742367_at) / RFU PRRT2 (11749266_a_at) / Fold change /veh PRRT2 (11749266_a_at) / RFU SNX32 (11753110_a_at) / Fold change /veh SNX32 (11753110_a_at) / RFU CDHR5 (11726645_a_at) / Fold change /veh CDHR5 (11726645_a_at) / RFU RCAN1 (11760418_a_at) / Fold change /veh RCAN1 (11760418_a_at) / RFU FAM167A (11723789_a_at) / Fold change /veh FAM167A (11723789_a_at) / RFU FAM26E (11764081_at) / Fold change /veh FAM26E (11764081_at) / RFU ISYNA1 (11749810_s_at) / Fold change /veh ISYNA1 (11749810_s_at) / RFU ACY1 (11761880_at) / Fold change /veh ACY1 (11761880_at) / RFU 11764098_at / Fold change /veh 11764098_at / RFU SAMD14 (11745864_x_at) / Fold change /veh SAMD14 (11745864_x_at) / RFU NPB (11741838_a_at) / Fold change /veh NPB (11741838_a_at) / RFU TMPRSS6 (11731388_a_at) / Fold change /veh TMPRSS6 (11731388_a_at) / RFU KRTAP10-2 (11738614_at) / Fold change /veh KRTAP10-2 (11738614_at) / RFU ARHGAP8 /// PRR5-ARHGAP8 (11727945_x_at) / Fold change /veh ARHGAP8 /// PRR5-ARHGAP8 (11727945_x_at) / RFU KRTAP5-7 /// NADSYN1 (11734609_at) / Fold change /veh KRTAP5-7 /// NADSYN1 (11734609_at) / RFU RASL12 (11751679_a_at) / Fold change /veh RASL12 (11751679_a_at) / RFU CDKN2B (11736163_a_at) / Fold change /veh CDKN2B (11736163_a_at) / RFU PRF1 (11729649_at) / Fold change /veh PRF1 (11729649_at) / RFU, ZNF638 /// ZNF638-IT1 / Fold change vs veh, ZNF638 /// ZNF638-IT1 / RFU, PANK3 / Fold change vs veh, PANK3 / RFU, SH3YL1 / Fold change vs veh, SH3YL1 / RFU, ZEB2 / Fold change vs veh, ZEB2 / RFU, NRIP1 / Fold change vs veh, NRIP1 / RFU, PTTG1IP / Fold change vs veh, PTTG1IP / RFU, CAPN2 / Fold change vs veh, CAPN2 / RFU, MED14 / Fold change vs veh, MED14 / RFU, SNORA58 / Fold change vs veh, SNORA58 / RFU, C1orf63 / Fold change vs veh, C1orf63 / RFU, LRRFIP1 / Fold change vs veh, LRRFIP1 / RFU, NDUFAF7 / Fold change vs veh, NDUFAF7 / RFU, SLC12A2 / Fold change vs veh, SLC12A2 / RFU, IBTK / Fold change vs veh, IBTK / RFU, ESF1 / Fold change vs veh, ESF1 / Fold change vs veh, TMEM50B / RFU, TAOK1 / Fold change vs veh, TAOK1 / RFU, ACBD3 / Fold change vs veh, ACBD3 / RFU, TMA16 / Fold change vs veh, TMA16 / RFU, RWDD3 / Fold change vs veh, RWDD3 / RFU, BCAT1 / Fold change vs veh, BCAT1 / RFU, EDEM3 / Fold change vs veh, EDEM3 / RFU, TMEM33 / Fold change vs veh, TMEM33 / RFU, WDR75 / Fold change vs veh, WDR75 / RFU, AHCTF1 / Fold change vs veh, AHCTF1 / RFU, TFRC / Fold change vs veh, TFRC / RFU, ZDHHC17 / Fold change vs veh, ZDHHC17 / RFU, NOM1 / Fold change vs veh, NOM1 / RFU, ARL8B / Fold change vs veh, ARL8B / RFU, ZBTB11 / Fold change vs veh, ZBTB11 / RFU, TAMM41 / Fold change vs veh, TAMM41 / RFU, KIAA1704 /// LOC100996395 / Fold change vs veh, KIAA1704 /// LOC100996395 / RFU, ING1 / Fold change vs veh, ING1 / RFU, TRMT61B / Fold change vs veh, TRMT61B / RFU, FUBP3 / Fold change vs veh, FUBP3 / RFU, TP53 / Fold change vs veh, TP53 / RFU, TNKS2 / Fold change vs veh, TNKS2 / RFU, ZFP14 / Fold change vs veh, ZFP14 / RFU, ACTR2 / Fold change vs veh, ACTR2 / RFU, PPP3R1 / Fold change vs veh, PPP3R1 / RFU, PIK3R1 / Fold change vs veh, PIK3R1 / RFU, HNRNPA1 / Fold change vs veh, HNRNPA1 / RFU, RNF170 / Fold change vs veh, RNF170 / RFU, ZNF28 / Fold change vs veh, ZNF28 / RFU, RNGTT / Fold change vs veh, RNGTT / RFU, OGT / Fold change vs veh, OGT / RFU, BRD1 / Fold change vs veh, BRD1 / RFU, MARS / Fold change vs veh, MARS / RFU, ZNF655 / Fold change vs veh, ZNF655 / RFU, FAHD1 / Fold change vs veh, FAHD1 / RFU, BDP1 / Fold change vs veh, BDP1 / RFU, LRRCC1 / Fold change vs veh, LRRCC1 / RFU, ARID1A / Fold change vs veh, ARID1A / RFU, ZNF146 / Fold change vs veh, ZNF146 / RFU, ZNF330 / Fold change vs veh, ZNF330 / RFU, GPN3 / Fold change vs veh, GPN3 / RFU, C9orf123 / Fold change vs veh, C9orf123 / RFU, N4BP2L2 / Fold change vs veh, N4BP2L2 / RFU, ARFIP1 / Fold change vs veh, ARFIP1 / RFU, FAM179B / Fold change vs veh, FAM179B / RFU, BCL10 / Fold change vs veh, BCL10 / RFU, UHRF1BP1L / Fold change vs veh, UHRF1BP1L / RFU, BET1 / Fold change vs veh, BET1 / RFU, CNOT2 / Fold change vs veh, CNOT2 / RFU, ZNF268 / Fold change vs veh, ZNF268 / Fold change vs veh, ZNF507 / RFU, DGCR2 / Fold change vs veh, DGCR2 / RFU, WDSUB1 / Fold change vs veh, WDSUB1 / Fold change vs veh, HSP90B1 /// MIR3652 / RFU, ADSS / Fold change vs veh, ADSS / RFU, GK / Fold change vs veh, GK / RFU, ZNF148 / Fold change vs veh, ZNF148 / RFU, TAF9 / Fold change vs veh, TAF9 / RFU, SLC1A5 / Fold change vs veh, SLC1A5 / RFU, SLMO2 / Fold change vs veh, SLMO2 / RFU, ABCC4 / Fold change vs veh, ABCC4 / RFU, LOC101060439 /// RAP1B / Fold change vs veh, LOC101060439 /// RAP1B / RFU, RFX7 / Fold change vs veh, RFX7 / RFU, GTPBP10 / Fold change vs veh, GTPBP10 / RFU, CNEP1R1 / Fold change vs veh, CNEP1R1 / RFU, BIVM-ERCC5 /// ERCC5 / Fold change vs veh, BIVM-ERCC5 /// ERCC5 / RFU, ILF3 / Fold change vs veh, ILF3 / RFU 11762660_at / Fold change /veh 11762660_at / RFU VCAN (11757783_s_at) / Fold change /veh VCAN (11757783_s_at) / RFU DDX43 (11728927_at) / Fold change /veh DDX43 (11728927_at) / RFU KRT8 (11758188_x_at) / Fold change /veh KRT8 (11758188_x_at) / RFU NKD1 (11759106_at) / Fold change /veh NKD1 (11759106_at) / RFU SRD5A1 (11742802_a_at) / Fold change /veh SRD5A1 (11742802_a_at) / RFU TPSAB1 /// TPSB2 (11721975_s_at) / Fold change /veh TPSAB1 /// TPSB2 (11721975_s_at) / RFU GSTM3 (11746129_a_at) / Fold change /veh GSTM3 (11746129_a_at) / RFU IL23R (11737362_x_at) / Fold change /veh IL23R (11737362_x_at) / RFU TMEM51 (11727254_a_at) / Fold change /veh TMEM51 (11727254_a_at) / RFU PIWIL2 (11732686_x_at) / Fold change /veh PIWIL2 (11732686_x_at) / RFU ORM1 (11744905_x_at) / Fold change /veh ORM1 (11744905_x_at) / RFU CCDC152 (11743942_at) / Fold change /veh CCDC152 (11743942_at) / RFU ECM1 (11717891_a_at) / Fold change /veh ECM1 (11717891_a_at) / RFU IL23R (11748794_a_at) / Fold change /veh IL23R (11748794_a_at) / RFU TNFAIP8L3 (11732012_x_at) / Fold change /veh TNFAIP8L3 (11732012_x_at) / RFU MBOAT4 (11741988_at) / Fold change /veh MBOAT4 (11741988_at) / RFU 11764193_at / Fold change /veh 11764193_at / RFU TMEM53 (11763286_at) / Fold change /veh TMEM53 (11763286_at) / RFU MAGEB2 (11727129_at) / Fold change /veh MAGEB2 (11727129_at) / RFU TMEM200A (11744735_a_at) / Fold change /veh TMEM200A (11744735_a_at) / RFU CCDC152 (11751479_a_at) / Fold change /veh CCDC152 (11751479_a_at) / RFU FAM211A (11726209_a_at) / Fold change /veh FAM211A (11726209_a_at) / RFU RGS16 (11746705_a_at) / Fold change /veh RGS16 (11746705_a_at) / RFU VCAN (11755009_s_at) / Fold change /veh VCAN (11755009_s_at) / RFU RHOB (11743442_s_at) / Fold change /veh RHOB (11743442_s_at) / RFU RGS16 (11720943_a_at) / Fold change /veh RGS16 (11720943_a_at) / RFU RGS16 (11720944_at) / Fold change /veh RGS16 (11720944_at) / RFU, VPS4B / Fold change vs veh, VPS4B / RFU, CREB1 / Fold change vs veh, CREB1 / RFU, DNAJC13 / Fold change vs veh, DNAJC13 / RFU, GNAQ / Fold change vs veh, GNAQ / RFU, CDK5R1 / Fold change vs veh, CDK5R1 / RFU, ZRANB3 / Fold change vs veh, ZRANB3 / RFU, CUL4A / Fold change vs veh, CUL4A / RFU, CCNY / Fold change vs veh, CCNY / RFU, UFL1 / Fold change vs veh, UFL1 / RFU, COG3 / Fold change vs veh, COG3 / RFU, DIAPH2 / Fold change vs veh, DIAPH2 / RFU, SKA2 / Fold change vs veh, SKA2 / RFU, AFF3 / Fold change vs veh, AFF3 / RFU, LMF1 / Fold change vs veh, LMF1 / RFU, IPO11 / Fold change vs veh, IPO11 / RFU, DFFB / Fold change vs veh, DFFB / RFU, FOXP1 / Fold change vs veh, FOXP1 / RFU, CARD8 / Fold change vs veh, CARD8 / RFU, STRN3 / Fold change vs veh, STRN3 / RFU, ADK / Fold change vs veh, ADK / RFU, RASSF2 / Fold change vs veh, RASSF2 / RFU, WIPF1 / Fold change vs veh, WIPF1 / RFU, LARP1B / Fold change vs veh, LARP1B / RFU, RASA1 / Fold change vs veh, RASA1 / RFU, RB1 / Fold change vs veh, RB1 / RFU, PPFIA1 / Fold change vs veh, PPFIA1 / RFU, MAT2A / Fold change vs veh, MAT2A / RFU, CCT5 / Fold change vs veh, CCT5 / RFU, WDR92 / Fold change vs veh, WDR92 / RFU, CUX1 / Fold change vs veh, CUX1 / RFU, TTC7A / Fold change vs veh, TTC7A / RFU, TMEM135 / Fold change vs veh, TMEM135 / RFU, DEPTOR / Fold change vs veh, DEPTOR / RFU, CPM / Fold change vs veh, CPM / RFU, DNAJB6 / Fold change vs veh, DNAJB6 / RFU, CACNA2D3 / Fold change vs veh, CACNA2D3 / RFU, DTX4 / Fold change vs veh, DTX4 / RFU, TFCP2 / Fold change vs veh, TFCP2 / RFU, GMCL1 /// GMCL1P1 / Fold change vs veh, GMCL1 /// GMCL1P1 / RFU, AEBP2 / Fold change vs veh, AEBP2 / RFU, SNHG1 /// SNORD22 /// SNORD25 /// SNORD26 /// SNORD27 /// SNORD28 /// SNORD29 /// SNORD31 / Fold change vs veh, SNHG1 /// SNORD22 /// SNORD25 /// SNORD26 /// SNORD27 /// SNORD28 /// SNORD29 /// SNORD31 / Fold change (Aza/veh), C12orf56 (ProbeSet 11735607_a_at) / Fold change (ACY-1035/veh), C12orf56 (ProbeSet 11735607_a_at) / Fold change (Aza/veh), FGFR1OP (ProbeSet 11751329_s_at) / Fold change (ACY-1035/veh), FGFR1OP (ProbeSet 11751329_s_at) / Fold change (Aza/veh), VPS36 (ProbeSet 11739960_a_at) / Fold change (ACY-1035/veh), VPS36 (ProbeSet 11739960_a_at) / RFU SYPL1 (11715823_x_at) / Fold change /veh SYPL1 (11715823_x_at) / RFU IGFBP7 (11715501_s_at) / Fold change /veh IGFBP7 (11715501_s_at) / RFU REEP3 (11722064_at) / Fold change /veh REEP3 (11722064_at) / RFU IGLL1 (11728026_x_at) / Fold change /veh IGLL1 (11728026_x_at): dose or concentration left out as unconfirmed", "details": "MV-4-11 cells, 48 hours"}
{"molecule": "Nc1ccc(-c2cccs2)cc1NC(=O)c1ccc2c(c1)cc(C1CC1)n2CCN1CCOCC1", "note": "[ACY-1035]", "values": [{"measurement": "Fold change /veh IL23R (11737362_x_at)", "value": 1.14}]}
